Legend:
DP = target: T1, DP (Homo sapiens, UniProt Q13258); assay: Other receptors Ca2+ functional assay, DP; type: cell-based
T1 sequence (Q13258 1-359): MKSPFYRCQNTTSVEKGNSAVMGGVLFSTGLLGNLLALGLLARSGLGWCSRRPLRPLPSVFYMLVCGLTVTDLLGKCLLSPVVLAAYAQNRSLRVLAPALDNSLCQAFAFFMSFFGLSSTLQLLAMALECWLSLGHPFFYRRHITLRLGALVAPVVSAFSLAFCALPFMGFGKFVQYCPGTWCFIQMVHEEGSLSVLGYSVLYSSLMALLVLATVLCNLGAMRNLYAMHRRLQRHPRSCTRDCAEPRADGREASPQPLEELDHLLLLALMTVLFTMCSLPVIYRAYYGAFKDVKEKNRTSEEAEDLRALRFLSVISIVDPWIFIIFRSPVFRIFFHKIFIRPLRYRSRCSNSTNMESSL
Excerpt: (§1) U.S. Pat. No. 7,427,685 incorporated by reference herein, describes the methods used to obtain the in vitro data in Table 2 below.

EP2 [1] = target: T2, EP2 (Homo sapiens, UniProt P43116); assay: EP2 Ca2+ signal functional assay; type: cell-based
T2 sequence (P43116 whole entry): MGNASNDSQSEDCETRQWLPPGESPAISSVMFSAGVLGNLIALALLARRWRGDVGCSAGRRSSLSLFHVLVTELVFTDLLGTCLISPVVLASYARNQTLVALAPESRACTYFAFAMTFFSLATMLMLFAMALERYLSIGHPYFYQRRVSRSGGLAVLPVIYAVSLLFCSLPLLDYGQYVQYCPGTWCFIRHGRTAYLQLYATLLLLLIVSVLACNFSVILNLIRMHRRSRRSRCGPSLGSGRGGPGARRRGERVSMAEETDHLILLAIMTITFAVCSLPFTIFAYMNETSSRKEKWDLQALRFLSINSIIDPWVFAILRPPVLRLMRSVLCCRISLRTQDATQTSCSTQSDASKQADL
Excerpt: as §1

EP4 [2] = target: T3, EP4 (Homo sapiens, UniProt P35408); assay: EP4 Ca2+ signal functional assay; type: cell-based
T3 sequence (P35408 whole entry): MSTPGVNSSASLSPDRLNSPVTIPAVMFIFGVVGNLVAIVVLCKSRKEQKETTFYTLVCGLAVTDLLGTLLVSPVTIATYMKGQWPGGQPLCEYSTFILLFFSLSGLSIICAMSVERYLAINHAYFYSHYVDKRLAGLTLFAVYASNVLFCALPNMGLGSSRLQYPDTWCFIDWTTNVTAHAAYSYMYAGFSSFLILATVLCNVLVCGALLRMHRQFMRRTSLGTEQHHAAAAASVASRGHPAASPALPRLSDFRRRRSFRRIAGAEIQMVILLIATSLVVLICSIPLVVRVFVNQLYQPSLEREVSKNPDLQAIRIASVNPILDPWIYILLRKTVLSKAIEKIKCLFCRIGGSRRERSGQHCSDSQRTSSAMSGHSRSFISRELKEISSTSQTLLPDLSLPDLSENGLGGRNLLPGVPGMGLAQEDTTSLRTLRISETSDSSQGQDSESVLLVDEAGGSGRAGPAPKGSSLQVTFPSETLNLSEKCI
Excerpt: as §1

EP2 [3] = target: T2, EP2; assay: EP2 cAMP functional assay; type: cell-based
Excerpt: as §1

EP2 [4] = target: T2, EP2; assay: EP2 binding (Ki)
Excerpt: as §1

EP4 [5] = target: T3, EP4; assay: EP4 binding (Ki)
Excerpt: as §1

EP3 = target: T4, EP3 (Homo sapiens, UniProt P43115); assay: Other receptors Ca2+ functional assay, EP3; type: cell-based
T4 sequence (P43115 1-390): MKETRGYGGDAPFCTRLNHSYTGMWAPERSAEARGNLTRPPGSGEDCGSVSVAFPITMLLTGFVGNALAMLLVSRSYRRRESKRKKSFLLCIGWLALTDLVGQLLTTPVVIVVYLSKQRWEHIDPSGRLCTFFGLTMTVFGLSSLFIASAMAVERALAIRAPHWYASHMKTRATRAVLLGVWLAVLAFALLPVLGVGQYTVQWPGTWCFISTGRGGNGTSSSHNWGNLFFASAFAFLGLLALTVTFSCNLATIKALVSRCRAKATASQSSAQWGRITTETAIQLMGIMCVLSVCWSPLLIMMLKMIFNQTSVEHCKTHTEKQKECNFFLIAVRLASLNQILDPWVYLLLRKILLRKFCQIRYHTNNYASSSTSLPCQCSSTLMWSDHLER
Excerpt: as §1

SMILES | EC50 (DP) [nM] | EC50 (EP2 [1]) [nM] | EC50 (EP4 [2]) [nM] | EC50 (EP2 [3]) [nM] | Ki (EP2 [4]) [nM] | Ki (EP4 [5]) [nM] | EC50 (EP3) [nM]
O=C(O)c1ccc(CCC[C@@H]2[C@@H](/C=C/C3CCCC3)[C@H](O)C[C@H]2Cl)s1 [Entry 2] | 191 | 3 | 1350 | 0.9 | 10 | 2740 | –
O=C(O)c1ccc(CCC[C@@H]2[C@@H](CCC3CCCCC3)[C@H](O)C[C@H]2Cl)s1 [Entry 3] | 548 | 12 | 6640 | 0.2 | 0.8 | 2150 | 9050
O=C(O)c1ccc(CCC[C@@H]2[C@@H](/C=C/C3CCCCC3)[C@H](O)C[C@H]2Cl)s1 [Entry 4] | 2160 | 7 | 3320 | 0.5 | 4 | 2710 | 5220
CCCCCC1(CC[C@@H]2[C@@H](CCCc3ccc(C(=O)O)s3)[C@H](Cl)C[C@H]2O)CCCCC1 [Entry 5] | – | 2410 | 9330 | 152 | 1040 | 5060 | –
O=C(O)c1ccc(CCC[C@@H]2[C@@H](CCC3CCCC3)[C@H](O)C[C@H]2Cl)s1 [compound 1] | 259 | 4 | 3070 | 0.6 | 9 | 2620 | –
